# Patent US8716530B2, “Facially amphiphilic polyaryl and polyarylalkynyl polymers and oligomers and uses thereof” (The Trustess of the University of Pennsylvania, priority 2004, dated 2014)
# Several values for one entry are separate records, joined by “and”; a condition that tells them apart may be missing. Identical values can stand only once. Like-named read-outs stand apart in the source and are kept apart here.
# Experiments:
# [1] = tested on: B. subtilis; experiment: Modified NCCLS microbroth dilution MIC assay; details: Bacillus subtilis
# [2] = tested on: Listeria monocytogenes; assay type: cell-based
# [3] = tested on: Proteus vulgaris; assay type: cell-based
# [4] = tested on: Serratia marcescens; assay type: cell-based
# [5] = tested on: Salmonella typhimurium; assay type: cell-based
# [6] = tested on: human erythrocytes; experiment: Hemolysis of human erythrocytes (HC50)
# [7] = tested on: S. aureus and methicillin-resistant S. aureus (MRSA); experiment: MIC100, modified NCCLS microbroth dilution (Table 6); assay type: cell-based; details: Staphylococcus aureus
# [8] = tested on: Pseudomonas stuarti; assay type: cell-based
# [9] = tested on: Lovenox inhibition of Factor Xa (FXa) activity; experiment: Chromogenic FXa assay: antagonism of Lovenox inhibition of Factor Xa; assay type: biochemical; details: fixed concentration of Lovenox, chromogenic substrate S-2765
# Experimental: To assess the potential of the phenylalkynyl oligomers to act as antagonists of the low molecular weight heparins (LMWH), Compound 3 was assayed for its ability to antagonize the inhibition of Factor Xa (FXa) activity by the LMWH Lovenox was determined for Compound 3. Briefly, FXa activity in the presence of Lovenox and inhibitor was measured in a chromogenic assay using reagents purchased from DiaPharma. […] In the assay setup for Schild-plot analysis (KB determination), varying concentrations of Lovenox were incubated with AT for 5 minutes. Different concentrations of inhibitor were added to each row of wells, to construct curves of fixed inhibitor concentration, and lightly shaken and incubated for 20 minutes. FXa was then added and reaction was shaken and incubated for 10 minutes. The substrate (S-2765) was then added to initiate the clotting cascade and the 96-well plate was then shaken and read every 30 seconds for 7 minutes at 405 nm on a ThermoLabsystems Multiskan Spectrum. The single curve Lovenox titration experiments (IC50 determination) consisted of the same procedure, but with a fixed concentration of Lovenox (determined by a titration curve in the absence of inhibitor). The analysis of each curve was performed using GraphPad Prism version 4.00 for Windows.
# [10] = tested on: Staphylococcus aureus; experiment: MIC100, control microbial agent, NCCLS guidelines; assay type: cell-based; details: strain ATCC29213, control organism (Table 5), read-out: MIC100 S. aureus ATCC29213
# [11] = tested on: Streptococcus gordonii; assay type: cell-based
# [12] = tested on: Streptococcus agalactiae; assay type: cell-based
# [13] = tested on: B. anthracis; experiment: microbe, parasite or virus in culture; assay type: cell-based, Bacillus anthracis
# [14] = tested on: Proteus mirabilis; assay type: cell-based
# [15] = tested on: Staphylococcus epidermidis; assay type: cell-based
# [16] = tested on: S. aureus; assay type: cell-based; details: S. aureus passaged at 0.5x MIC100; by passage 16 (17 consecutive passages)
# [17] = tested on: Streptococcus pyogenes; experiment: MIC100, clinical isolates of hospital-acquired pathogens (Table 7); assay type: cell-based; details: Mueller Hinton+2-5% lysed horse blood, in µg/mL
# [18] = tested on: Streptococcus pneumoniae; experiment: as above; assay type: cell-based
# [19] = tested on: F. tularensis; experiment: microbe, parasite or virus in culture; assay type: cell-based; details: Francisella tularensis
# [20] = tested on: Bacillus globigii; assay type: cell-based
# [21] = tested on: Candida albicans; experiment: MIC100, clinical isolates of hospital-acquired pathogens (Table 7); assay type: cell-based; details: one table line per isolate, RPMI synthetic medium, in µg/mL
# [22] = tested on: Y. pestis; experiment: microbe, parasite or virus in culture; assay type: cell-based; details: Yersinia pestis, 30 h, read-out: MIC100 Y. pestis (30 hr)
# [23] = tested on: Pseudomonas aeruginosa; assay type: cell-based
# [24] = tested on: Escherichia coli; assay type: cell-based
# [25] = tested on: Neisseria sicca; assay type: cell-based
# [26] = tested on: Klebsiella aerogenes; assay type: cell-based
# [27] = tested on: K. pneumonia; experiment: Modified NCCLS microbroth dilution MIC assay; details: Klebsiella pneumoniae, read-out: K. pneumonia MIC
# [28] = tested on: Moraxella catarrhalis; assay type: cell-based
# [29] = tested on: E. coli; experiment: MIC100, modified NCCLS microbroth dilution (Table 6); assay type: cell-based; details: Escherichia coli
# [30] = tested on: Enterobacter cloacae; assay type: cell-based
# [31] = tested on: Enterococcus faecalis; experiment: MIC100, clinical isolates of hospital-acquired pathogens (Table 7); assay type: cell-based; details: control strain ATCC 29212
# [32] = tested on: Enterococcus faecalis; assay type: cell-based
# [33] = tested on: Klebsiella pneumoniae; assay type: cell-based
structure (smiles),measurement,setting,value
NCCc1cc(Br)cc(C#Cc2cccc(C#Cc3cc(Br)cc(CCN)c3)c2)c1 [Compound 3],MIC,[1]; read-out: B. subtilis MIC,1.6 µg/mL
same,MIC90,[1]; read-out: MIC90 B. subtilis,1.6 µg/mL
same,MIC100 Listeria monocytogenes,[2],1.7 µg/mL
same,MIC100 Proteus vulgaris,[3],3.4 µg/mL
same,MIC100 Serratia marcescens,[4],3.4 µg/mL
same,MIC100 Salmonella typhimurium,[5],3.4 µg/mL
same,Hemolysis HC50,"[6]; human erythrocytes, one hour incubation, 50% hemoglobin release, Table 1",75 µg/mL
same,HC50,"[6]; human erythrocytes, Table 2",75 µg/mL
same,Selectivity HC50/MIC E.coli,[6]; ratio of HC50 to E. coli MIC,88.2
same,MIC,"[7]; ATCC 29213 / MRSA, strain ATCC29213 (Table 6), read-out: MIC100 S. aureus ATCC29213",0.5 µg/mL
same,MIC,"[7]; MRSA, methicillin-resistant S. aureus OC2878, read-out: MIC100 MRSA OC2878",0.5 µg/mL
same,MIC100 Pseudomonas stuarti,[8],> 6.6 µg/mL
same,IC50,[9],5.07 µM
same,MIC,[10],2 µg/mL
same,MIC100 Streptococcus gordonii,[11],1.7 µg/mL
same,MIC100 Streptococcus agalactiae,[12],0.4 µg/mL
same,MIC,"[13]; Bacillus anthracis, 24 h, read-out: MIC100 B. anthracis (24 hr)",1 µg/mL
same,Time course of growth inhibition of Bacillus anthracis,[13]; growth recorded at 2 hour intervals over 24 hours (FIG. 3),complete inhibition of growth at early and late time points
same,MIC100 Proteus mirabilis,[14],> 6.6 µg/mL
same,MIC100 Staphylococcus epidermidis,[15],0.8 µg/mL
same,increase in MIC on serial passage,[16],No consistent increase in the MIC
same,mic (MIC100) Streptococcus pyogenes,[17],2 and 4
same,mic (MIC100) Streptococcus pneumoniae,"[18]; clinical isolates, no phenotype given, Mueller Hinton+2-5% lysed horse blood, in µg/mL",2
same,mic (MIC100) Streptococcus pneumoniae ATCC 49619,[18]; control strain ATCC 49619,2 µg/mL
same,mic (MIC100) Streptococcus pneumoniae PEN-R,"[18]; penicillin-resistant clinical isolates, Mueller Hinton+2-5% lysed horse blood, in µg/mL",2 and 1
same,MIC,[19]; read-out: MIC100 F. tularensis 17135,1 µg/mL
same,MIC,[19]; read-out: MIC100 F. tularensis 17137,1 µg/mL
same,MIC100 Bacillus globigii,[20],3.4 µg/mL
same,mic (MIC100) Candida albicans,[21],0.5 and 1
same,MIC,[22],4 µg/mL
same,MIC100 Pseudomonas aeruginosa,[23],3.4 µg/mL
same,MIC100 Escherichia coli 6C4468,[24],1.7 µg/mL
same,MIC100 Escherichia coli CIS,[24],1.7 µg/mL
same,MIC100 Escherichia coli D31,[24],0.84 µg/mL
same,MIC100 Neisseria sicca,[25],3.4 µg/mL
same,MIC100 Klebsiella aerogenes,[26],3.4 µg/mL
same,MIC,[27],1.7 µg/mL
same,MIC100 Moraxella catarrhalis,[28],0.84 µg/mL
same,MIC,"[29]; strain ATCC25922, read-out: MIC100 E. coli ATCC25922",2 µg/mL
same,MIC,"[29]; strain OC2530, read-out: MIC100 E. coli OC2530",0.5 µg/mL
same,MIC100 Enterobacter cloacae,[30],1.7 µg/mL
same,mic (MIC100) Enterococcus faecalis ATCC 29212,[31],1 µg/mL
same,MIC100 Enterococcus faecalis,[32],0.84 µg/mL
same,MIC100 Klebsiella pneumoniae,[33],1.7 µg/mL
